# Data as given in publication PMC12749166, “Fragment-based drug design of a bacterial kinase inhibitor capable of increasing the antibiotic sensitivity of clinical isolates” (Communications Chemistry, 2025).
# Legend:
# APH(2”)-IVa [1] = molecular target: T1, APH(2”)-IVa (Enterococcus casseliflavus, UniProt O68183); test: IC50 by HPLC quantification of ATP and ADP; type: biochemical, E. casseliflavus
# Target sequence in this assay (O68183 entry or part of it): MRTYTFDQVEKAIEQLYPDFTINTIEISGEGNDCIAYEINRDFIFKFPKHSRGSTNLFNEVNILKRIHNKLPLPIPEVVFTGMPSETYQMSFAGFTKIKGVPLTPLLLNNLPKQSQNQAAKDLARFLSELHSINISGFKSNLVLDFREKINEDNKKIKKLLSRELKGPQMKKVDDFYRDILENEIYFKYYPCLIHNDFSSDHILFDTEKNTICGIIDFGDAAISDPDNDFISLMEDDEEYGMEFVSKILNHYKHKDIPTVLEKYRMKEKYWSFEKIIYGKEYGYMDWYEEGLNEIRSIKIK
# Description: The reaction mixture consists of the APH and its substrates, as well as a potential inhibitor for inhibition measurements. Reactions were initiated by adding the ATP solution supplemented or not with the inhibitor, in a thermostated beaker containing the APH. […] The reaction was stopped at several time points by adding 80 µL of the enzymatic reaction mixture from the beaker to 40 µL of 10% perchloric acid (PCA) in an Eppendorf tube. Samples were then centrifuged for 30 min at 12750 rpm and 8 °C. 100 µL of the supernatant was then mixed with 900 µL of mobile phase (250 mM NaH2PO4, 50% Acetonitrile, pH 5.5) supplemented with KOH to readjust the pH to 5.5 before injection. […] 100 µL of samples were injected on a SAX PartiSphere column (AIT France) at a flow rate of 1 mL min^−1. ATP and ADP peaks were integrated, and the area under the peaks was calculated using OpenLab CDS software (v. ChemStation, Agilent). The kss values were then measured using linear regression in GraFit software and IC50 determined by fitting with a hyperbola the percentage of inhibition as a function of inhibitor concentration. The standard error of the IC50 value was determined in the GraFit software based on the fitting of the experimental data.
# APH(2”)-IVa [2] = molecular target: T1, APH(2”)-IVa; test: biochemical; type: binding
# Description: ITC experiments were performed on three different machines: a MicroCal VP-ITC (GE Healthcare), a MicroCal PEAQ-ITC (Malvern), or a MicroCal iTC200 (Malvern). The architecture and principles are similar for the three different systems. The experiments were carried out in Buffer HEPES at 25 °C. Titrations consisted of twenty injections of 1.5 µL inhibitors, every 120 seconds, into the measuring cell using the injection syringe rotating at 750 rpm. The data were analyzed using the MicroCal PEAQ-ITC software (v. 1.52, Malvern) using the single-site binding model to fit the raw data. The standard error of the Kd value was determined from measurements made on distinct samples (n indicated in the text).
# Target sequence in this assay (O68183 1-301): as the sequence (O68183 entry or part of it) above
# APH(3’)-Ic = type: biochemical, A. baumannii; details: 100 µM of 83
# APH(3’)-IIa = molecular target: T2, APH(3’)-IIa (Klebsiella pneumoniae, UniProt P00552); test: biochemical; set-up: species or system K. pneumoniae
# T2 construct: His-tag (inferred from HisTrap purification); made in house; host or cells: E. coli BL21
# T2 sequence (P00552 whole entry): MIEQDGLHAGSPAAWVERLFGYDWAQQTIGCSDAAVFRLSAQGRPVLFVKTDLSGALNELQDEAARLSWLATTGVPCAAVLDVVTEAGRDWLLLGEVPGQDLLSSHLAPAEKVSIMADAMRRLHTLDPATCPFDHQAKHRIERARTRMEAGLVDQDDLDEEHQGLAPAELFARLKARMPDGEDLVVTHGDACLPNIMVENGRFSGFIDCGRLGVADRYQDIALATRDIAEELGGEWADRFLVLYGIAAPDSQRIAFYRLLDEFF
# P. aeruginosa C0307 = test: Checkerboard assay of 83 with kanamycin A; type: cell-based; details: for MIC of kanamycin A: 18 h at 37 °C
smiles,measurement,setting,value
Clc1cnc2[nH]ccc2c1-c1ccn[nH]1 [Compound 83],IC50,APH(2”)-IVa [1],840 ± 130 nM
same,Kd,APH(2”)-IVa [2],1060 ± 170 nM
same,ΔH,APH(2”)-IVa [2]; ITC,-11.0 kcal/mol
same,Inhibition (%),APH(3’)-Ic,35%
same,inhibition at 100 µM,APH(3’)-IIa,76%
same,MIC of kanamycin A,"P. aeruginosa C0307; 0 µg mL^−1 imipenem, [83] 2 µg mL^−1",64 µg/mL
same,MIC of kanamycin A,"P. aeruginosa C0307; 0 µg mL^−1 imipenem, [83] 4 µg mL^−1",64 µg/mL
same,MIC of kanamycin A,"P. aeruginosa C0307; 0 µg mL^−1 imipenem, [83] 8 µg mL^−1",64 µg/mL
same,MIC of kanamycin A,"P. aeruginosa C0307; 0 µg mL^−1 imipenem, [83] 16 µg mL^−1",64 µg/mL
same,MIC of kanamycin A,"P. aeruginosa C0307; 0 µg mL^−1 imipenem, [83] 32 µg mL^−1",64 µg/mL
same,MIC of kanamycin A,"P. aeruginosa C0307; 0 µg mL^−1 imipenem, [83] 64 µg mL^−1",64 µg/mL
same,MIC of kanamycin A,"P. aeruginosa C0307; 0 µg mL^−1 imipenem, [83] 128 µg mL^−1",32 µg/mL
same,MIC of kanamycin A,"P. aeruginosa C0307; 0.05 µg mL^−1 imipenem, [83] 2 µg mL^−1",64 µg/mL
same,MIC of kanamycin A,"P. aeruginosa C0307; 0.05 µg mL^−1 imipenem, [83] 4 µg mL^−1",64 µg/mL
same,MIC of kanamycin A,"P. aeruginosa C0307; 0.05 µg mL^−1 imipenem, [83] 8 µg mL^−1",64 µg/mL
same,MIC of kanamycin A,"P. aeruginosa C0307; 0.05 µg mL^−1 imipenem, [83] 16 µg mL^−1",64 µg/mL
same,MIC of kanamycin A,"P. aeruginosa C0307; 0.05 µg mL^−1 imipenem, [83] 32 µg mL^−1",64 µg/mL
same,MIC of kanamycin A,"P. aeruginosa C0307; 0.05 µg mL^−1 imipenem, [83] 64 µg mL^−1",64 µg/mL
same,MIC of kanamycin A,"P. aeruginosa C0307; 0.05 µg mL^−1 imipenem, [83] 128 µg mL^−1",32 µg/mL
same,checkerboard well reading (growth),"P. aeruginosa C0307; Supp. Figure 3 A, 83 1 µg.mL-1, kanamycin A 0 µg.mL-1",1.117
same,checkerboard well reading (growth),"P. aeruginosa C0307; Supp. Figure 3 A, 83 1 µg.mL-1, kanamycin A 2 µg.mL-1",1.340
same,checkerboard well reading (growth),"P. aeruginosa C0307; Supp. Figure 3 A, 83 1 µg.mL-1, kanamycin A 4 µg.mL-1",1.454
same,checkerboard well reading (growth),"P. aeruginosa C0307; Supp. Figure 3 A, 83 1 µg.mL-1, kanamycin A 8 µg.mL-1",1.268
same,checkerboard well reading (growth),"P. aeruginosa C0307; Supp. Figure 3 A, 83 16 µg.mL-1, kanamycin A 0 µg.mL-1",1.272
same,checkerboard well reading (growth),"P. aeruginosa C0307; Supp. Figure 3 A, 83 16 µg.mL-1, kanamycin A 2 µg.mL-1",1.771
same,checkerboard well reading (growth),"P. aeruginosa C0307; Supp. Figure 3 A, 83 16 µg.mL-1, kanamycin A 4 µg.mL-1",1.508
same,checkerboard well reading (growth),"P. aeruginosa C0307; Supp. Figure 3 A, 83 16 µg.mL-1, kanamycin A 8 µg.mL-1",1.668
same,checkerboard well reading (growth),"P. aeruginosa C0307; Supp. Figure 3 A, 83 16 µg.mL-1, kanamycin A 16 µg.mL-1",1.123
same,checkerboard well reading (growth),"P. aeruginosa C0307; Supp. Figure 3 A, 83 16 µg.mL-1, kanamycin A 32 µg.mL-1",1.123
same,checkerboard well reading (growth),"P. aeruginosa C0307; Supp. Figure 3 A, 83 16 µg.mL-1, kanamycin A 64 µg.mL-1",0.184
same,checkerboard well reading (growth),"P. aeruginosa C0307; Supp. Figure 3 A, 83 16 µg.mL-1, kanamycin A 128 µg.mL-1",0.041
same,checkerboard well reading (growth),"P. aeruginosa C0307; Supp. Figure 3 A, 83 32 µg.mL-1, kanamycin A 0 µg.mL-1",1.376
same,checkerboard well reading (growth),"P. aeruginosa C0307; Supp. Figure 3 A, 83 32 µg.mL-1, kanamycin A 2 µg.mL-1",1.667
same,checkerboard well reading (growth),"P. aeruginosa C0307; Supp. Figure 3 A, 83 32 µg.mL-1, kanamycin A 4 µg.mL-1",1.435
same,checkerboard well reading (growth),"P. aeruginosa C0307; Supp. Figure 3 A, 83 32 µg.mL-1, kanamycin A 8 µg.mL-1",1.524
same,checkerboard well reading (growth),"P. aeruginosa C0307; Supp. Figure 3 A, 83 32 µg.mL-1, kanamycin A 16 µg.mL-1",1.359
same,checkerboard well reading (growth),"P. aeruginosa C0307; Supp. Figure 3 A, 83 32 µg.mL-1, kanamycin A 32 µg.mL-1",1.130
same,checkerboard well reading (growth),"P. aeruginosa C0307; Supp. Figure 3 A, 83 32 µg.mL-1, kanamycin A 64 µg.mL-1",0.118
same,checkerboard well reading (growth),"P. aeruginosa C0307; Supp. Figure 3 A, 83 32 µg.mL-1, kanamycin A 128 µg.mL-1",0.042
same,checkerboard well reading (growth),"P. aeruginosa C0307; Supp. Figure 3 A, 83 64 µg.mL-1, kanamycin A 0 µg.mL-1",1.213
same,checkerboard well reading (growth),"P. aeruginosa C0307; Supp. Figure 3 A, 83 64 µg.mL-1, kanamycin A 2 µg.mL-1",1.320
same,checkerboard well reading (growth),"P. aeruginosa C0307; Supp. Figure 3 A, 83 64 µg.mL-1, kanamycin A 4 µg.mL-1",1.451
same,checkerboard well reading (growth),"P. aeruginosa C0307; Supp. Figure 3 A, 83 64 µg.mL-1, kanamycin A 8 µg.mL-1",1.433
same,checkerboard well reading (growth),"P. aeruginosa C0307; Supp. Figure 3 A, 83 64 µg.mL-1, kanamycin A 16 µg.mL-1",1.312
same,checkerboard well reading (growth),"P. aeruginosa C0307; Supp. Figure 3 A, 83 64 µg.mL-1, kanamycin A 32 µg.mL-1",1.055
same,checkerboard well reading (growth),"P. aeruginosa C0307; Supp. Figure 3 A, 83 64 µg.mL-1, kanamycin A 64 µg.mL-1",0.042
same,checkerboard well reading (growth),"P. aeruginosa C0307; Supp. Figure 3 A, 83 64 µg.mL-1, kanamycin A 128 µg.mL-1",0.044
same,checkerboard well reading (growth),"P. aeruginosa C0307; Supp. Figure 3 A, 83 128 µg.mL-1, kanamycin A 0 µg.mL-1",1.324
same,checkerboard well reading (growth),"P. aeruginosa C0307; Supp. Figure 3 A, 83 128 µg.mL-1, kanamycin A 2 µg.mL-1",1.439
same,checkerboard well reading (growth),"P. aeruginosa C0307; Supp. Figure 3 A, 83 128 µg.mL-1, kanamycin A 4 µg.mL-1",1.308
same,checkerboard well reading (growth),"P. aeruginosa C0307; Supp. Figure 3 A, 83 128 µg.mL-1, kanamycin A 8 µg.mL-1",1.307
same,checkerboard well reading (growth),"P. aeruginosa C0307; Supp. Figure 3 A, 83 128 µg.mL-1, kanamycin A 16 µg.mL-1",1.218
same,checkerboard well reading (growth),"P. aeruginosa C0307; Supp. Figure 3 A, 83 128 µg.mL-1, kanamycin A 32 µg.mL-1",0.227
same,checkerboard well reading (growth),"P. aeruginosa C0307; Supp. Figure 3 A, 83 128 µg.mL-1, kanamycin A 64 µg.mL-1",0.039
same,checkerboard well reading (growth),"P. aeruginosa C0307; Supp. Figure 3 A, 83 128 µg.mL-1, kanamycin A 128 µg.mL-1",0.039
same,checkerboard well reading (growth),"P. aeruginosa C0307; Supp. Figure 3 B, 83 1 µg.mL-1, kanamycin A 0 µg.mL-1",1.239
same,checkerboard well reading (growth),"P. aeruginosa C0307; Supp. Figure 3 B, 83 1 µg.mL-1, kanamycin A 2 µg.mL-1",1.239
same,checkerboard well reading (growth),"P. aeruginosa C0307; Supp. Figure 3 B, 83 1 µg.mL-1, kanamycin A 4 µg.mL-1",1.159
same,checkerboard well reading (growth),"P. aeruginosa C0307; Supp. Figure 3 B, 83 1 µg.mL-1, kanamycin A 8 µg.mL-1",1.192
same,checkerboard well reading (growth),"P. aeruginosa C0307; Supp. Figure 3 B, 83 1 µg.mL-1, kanamycin A 16 µg.mL-1",1.219
same,checkerboard well reading (growth),"P. aeruginosa C0307; Supp. Figure 3 B, 83 1 µg.mL-1, kanamycin A 32 µg.mL-1",1.181
same,checkerboard well reading (growth),"P. aeruginosa C0307; Supp. Figure 3 B, 83 1 µg.mL-1, kanamycin A 64 µg.mL-1",0.113
